# Measurements published in ChEMBL document CHEMBL4616582, “Green recipes to quinoline: A review” (Eur J Med Chem, 2019).
# Key:
# [1] = test system: B16-F10; assay: Cytotoxicity against mouse B16F10 cells assessed as reduction in cell viability; assay type: functional, cell-based
# [2] = test system: Bacillus subtilis; assay: Antibacterial activity against Bacillus subtilis MTCC 121 after 24 hrs by agar well diffusion method; assay type: functional; settings: MTCC 121, 24 h
# [3] = test system: HepG2; assay: Cytotoxicity against human HepG2 cells assessed as reduction in cell viability by MTT assay; assay type: functional, cell-based
# [4] = test system: Plasmodium falciparum; assay: Antimalarial activity against chloroquine and quinine sensitive Plasmodium falciparum; assay type: functional, organism-based
smiles,measurement,setting,value
O=c1oc2ccccc2c2nc3c(ccc4cc[nH]c43)c(-c3ccc(F)cc3)c12,IC50,[1],70.7 µM
O=c1oc2ccccc2c2nc3c(ccc4cc[nH]c43)c(-c3ccc(C(F)(F)F)cc3)c12,IC50,[1],70.7 µM
CC1(C)CC(=O)C2=C(C1)N(c1ccccc1)C(=O)C21C2=C(Nc3ccc(Br)cc31)c1ccccc1C2=O (centres undefined),MIC,[2],8 µg/mL
CC(=O)c1cc(C)ccc1Br,IC50,[3],0.984 µM
O=c1oc2ccccc2c2nc3c(ccc4cc[nH]c43)c(-c3ccccc3)c12,IC50,[1],70.7 µM
O=c1oc2ccccc2c2nc3c(ccc4cc[nH]c43)c(-c3ccccn3)c12,IC50,[1],70.7 µM
CC1(C)CC(=O)C2=C(C1)N(c1ccccc1)C(=O)C21C2=C(Nc3ccccc31)c1ccccc1C2=O (centres undefined),MIC,[2],8 µg/mL
Cc1nn(-c2ccccc2)c(Oc2ccc(F)cc2)c1C1C(C#N)=C(N)N(Nc2ccccc2)C2=C1C(=O)CC(C)(C)C2 (centres undefined),IC50,[4],0.042 to 0.09 µg/mL
O=c1oc2ccccc2c2nc3c(ccc4cc[nH]c43)c(-c3ccc(O)cc3)c12,IC50,[1],70.7 µM
CC1(C)CC(=O)C2=C(C1)N(c1ccc(Cl)cc1)C(=O)C21C2=C(Nc3ccc([N+](=O)[O-])cc31)c1ccccc1C2=O (centres undefined),MIC,[2],8 µg/mL
Cc1nn(-c2ccccc2)c(Oc2cccc(F)c2)c1C1C(C#N)=C(N)N(Nc2ccccc2)C2=C1C(=O)CC(C)(C)C2 (centres undefined),IC50,[4],0.042 to 0.09 µg/mL
Cc1ccc(Br)c2c(=O)c3/c(=N/c4ccccc4)ssc3n(-c3ccccc3)c12,IC50,[3],0.984 µM
O=c1c2ccc(F)cc2n(-c2ccccc2)c2ss/c(=N\c3ccccc3)c12,IC50,[3],0.984 µM
O=C1CCCC2=C1C1(C(=O)N2c2ccc(Br)cc2)C2=C(Nc3ccc([N+](=O)[O-])cc31)c1ccccc1C2=O (centres undefined),MIC,[2],8 µg/mL
O=C1CCCC2=C1C1(C(=O)N2c2ccccc2)C2=C(Nc3ccccc31)c1ccccc1C2=O (centres undefined),MIC,[2],8 µg/mL
Cc1nn(-c2ccccc2)c(Oc2cccc(F)c2)c1C1C(C#N)=C(N)N(Nc2ccc(F)cc2)C2=C1C(=O)CC(C)(C)C2 (centres undefined),IC50,[4],0.042 to 0.09 µg/mL
O=Cc1cccc(Cl)c1Cl,IC50,[1],70.7 µM
O=c1c2c(Cl)cc(Cl)c(F)c2n(-c2ccccc2)c2ss/c(=N\c3ccccc3)c12,IC50,[3],0.984 µM
Cc1ccc(N2C(=O)C3(C4=C(Nc5ccc(Br)cc53)c3ccccc3C4=O)C3=C2CCCC3=O)cc1 (centres undefined),MIC,[2],8 µg/mL
O=C1CCCC2=C1C1(C(=O)N2c2ccccc2)C2=C(Nc3ccc([N+](=O)[O-])cc31)c1ccccc1C2=O (centres undefined),MIC,[2],8 µg/mL
Cc1nn(-c2ccccc2)c(Oc2ccccc2F)c1C1C(C#N)=C(N)N(Nc2ccc(Cl)cc2)C2=C1C(=O)CC(C)(C)C2 (centres undefined),IC50,[4],0.042 to 0.09 µg/mL
O=c1oc2ccccc2c2nc3c(ccc4cc[nH]c43)c(-c3cccnc3Cl)c12,IC50,[1],70.7 µM
CC(=O)c1cc(F)c(Cl)cc1Cl,IC50,[3],0.984 µM
Cc1ccc(N2C(=O)C3(C4=C(Nc5ccccc53)c3ccccc3C4=O)C3=C2CC(C)(C)CC3=O)cc1 (centres undefined),MIC,[2],8 µg/mL
CC1(C)CC(=O)C2=C(C1)N(c1ccco1)C(=O)C21C2=C(Nc3ccc([N+](=O)[O-])cc31)c1ccccc1C2=O (centres undefined),MIC,[2],8 µg/mL
O=c1oc2ccccc2c2nc3c(ccc4cc[nH]c43)c(-c3ccc(Cl)cc3)c12,IC50,[1],70.7 µM
CCCCN1C(=O)C2(C3=C(Nc4ccc(Br)cc42)c2ccccc2C3=O)C2=C1CC(C)(C)CC2=O (centres undefined),MIC,[2],8 µg/mL
Cc1nn(-c2ccccc2)c(Oc2ccc(F)cc2)c1C1C(C#N)=C(N)N(Nc2ccc(F)cc2)C2=C1C(=O)CC(C)(C)C2 (centres undefined),IC50,[4],0.042 to 0.09 µg/mL
O=c1cc(O)c2cc(F)ccc2o1,IC50,[1],70.7 µM
Cc1nn(-c2ccccc2)c(Oc2ccccc2F)c1C1C(C#N)=C(N)N(Nc2ccccc2)C2=C1C(=O)CC(C)(C)C2 (centres undefined),IC50,[4],0.042 to 0.09 µg/mL
O=c1oc2ccccc2c2nc3c(ccc4cc[nH]c43)c(-c3cccc(Br)c3)c12,IC50,[1],70.7 µM
CC1(C)CC(=O)C2=C(C1)N(c1ccco1)C(=O)C21C2=C(Nc3ccc(Br)cc31)c1ccccc1C2=O (centres undefined),MIC,[2],8 µg/mL
Cc1nn(-c2ccccc2)c(Oc2ccc(F)cc2)c1C1C(C#N)=C(N)N(Nc2ccc(Br)cc2)C2=C1C(=O)CC(C)(C)C2 (centres undefined),IC50,[4],0.042 to 0.09 µg/mL
O=C1CCCC2=C1C1(C(=O)N2c2ccc(Cl)cc2)C2=C(Nc3ccccc31)c1ccccc1C2=O (centres undefined),MIC,[2],8 µg/mL
O=c1oc2ccccc2c2nc3c(ccc4cc[nH]c43)c(-c3cccc(Cl)c3Cl)c12,IC50,[1],70.7 µM
Cc1nn(-c2ccccc2)c(Oc2cccc(C(F)(F)F)c2)c1C1C(C#N)=C(N)N(Nc2ccccc2)C2=C1C(=O)CC(C)(C)C2 (centres undefined),IC50,[4],0.042 to 0.09 µg/mL
Cc1nn(-c2ccccc2)c(Oc2ccccc2F)c1C1C(C#N)=C(N)N(Nc2ccc(Br)cc2)C2=C1C(=O)CC(C)(C)C2 (centres undefined),IC50,[4],0.042 to 0.09 µg/mL
Nc1cccc2cc[nH]c12,IC50,[1],70.7 µM
CC(=O)c1ccc(Cl)cc1,IC50,[3],0.984 µM
O=Cc1cccnc1Cl [2-CHLORONICOTINALDEHYDE],IC50,[1],70.7 µM
O=Cc1ccccn1 [2-PYRIDINECARBOXALDEHYDE],IC50,[1],70.7 µM
O=Cc1ccc(O)cc1 [4-HYDROXYBENZALDEHYDE],IC50,[1],70.7 µM
O=c1cc(O)c2ccccc2o1 [4-HYDROXYCOUMARINS],IC50,[1],70.7 µM
CC(=O)c1ccccc1 [ACETOPHENONE],IC50,[3],0.984 µM
COc1ccc(C=O)cc1 [ANISALDEHYDE],IC50,[1],70.7 µM
O=Cc1ccccc1 [BENZALDEHYDE],IC50,[1],70.7 µM
O=C(O)c1cn(C2CC2)c2cc(N3CCNCC3)c(F)cc2c1=O [CIPROFLOXACIN],MIC,[2],6.25 µg/mL
CC(C)=CCC[C@]1(C)C=Cc2c(O)c3c(c(CC=C(C)C)c2O1)O[C@]12C(=C[C@@H]4C[C@H]1C(C)(C)O[C@@]2(C/C=C(/C)C(=O)O)C4=O)C3=O [GAMBOGIC ACID],IC50,[3],1.55 µM
S=C=Nc1ccccc1 [PHENYLISOTHIOCYANATE],IC50,[3],0.984 µM
